Data taken from PMC10221314 (Pharmaceuticals, 2023).

Legend:
Type in all cases: cell-based
PPARα = target: T1, PPARα (Homo sapiens, UniProt Q07869); assay: NR selectivity one-hybrid assay in HEK-293T cells (PPARα); details: activated by fenofibrate
T1 construct: a fusion plasmid of Gal4 DBD-NR LBD (comprising RXRα, RXRβ, RXRγ, PPARα, PPARβ, PPARγ, LXRα, LXRβ, GPBAR, and PXR); expressed in transfected cells; host or cells: HEK-293T
T1 sequence (Q07869 239-466 limits assumed): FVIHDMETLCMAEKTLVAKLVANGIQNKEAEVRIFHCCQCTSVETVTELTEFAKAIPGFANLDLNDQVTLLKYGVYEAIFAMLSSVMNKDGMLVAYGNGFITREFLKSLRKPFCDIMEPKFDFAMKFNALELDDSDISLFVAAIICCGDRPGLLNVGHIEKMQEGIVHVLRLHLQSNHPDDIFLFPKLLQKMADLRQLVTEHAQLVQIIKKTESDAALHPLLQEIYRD
Experimental: (§1) To assess the compound’s specificity, the mammalian one-hybrid assay was conducted. In this assay, HEK-293T cells were co-transfected with a fusion plasmid of Gal4 DBD-NR LBD (comprising RXRα, RXRβ, RXRγ, PPARα, PPARβ, PPARγ, LXRα, LXRβ, GPBAR, and PXR) and the UAS-TK-Luc reporter, followed by treatment with various concentrations of the compound. The positive control consisted of the corresponding nuclear receptor agonist, and the concentration used in the experiment was set to the EC50 of the agonist.
(§2) Figure 3 Compound 10b selectively antagonized FXR. The impact of compound 10b on various NRs was evaluated using a […] one-hybrid assay in HEK-293T cells. The cells were transiently co-transfected with a fusion plasmid of Gal4 DBD-NR-LBD, which included PPARα, PPARβ, PPARγ, RXRα, RXRβ, RXRγ, LXRα, LXRβ, GPBAR, PXR, and FXR, in combination with the UAS-TK-Luc reporter. […] The values are expressed as the means ± SE of three independent experiments. *: p < 0.05 vs. RA (relative agonist).

FXR [1] = target: T2, FXR (Homo sapiens, UniProt Q96RI1); assay: Yeast one-hybrid assay of FXR antagonistic activity in HEK-293T cells
T2 construct: a fusion plasmid of Gal4 DBD-NR-LBD, which included PPARα, PPARβ, PPARγ, RXRα, RXRβ, RXRγ, LXRα, LXRβ, GPBAR, PXR, and FXR; expressed in transfected cells; host or cells: HEK-293T
T2 sequence (Q96RI1 262-486 limits assumed): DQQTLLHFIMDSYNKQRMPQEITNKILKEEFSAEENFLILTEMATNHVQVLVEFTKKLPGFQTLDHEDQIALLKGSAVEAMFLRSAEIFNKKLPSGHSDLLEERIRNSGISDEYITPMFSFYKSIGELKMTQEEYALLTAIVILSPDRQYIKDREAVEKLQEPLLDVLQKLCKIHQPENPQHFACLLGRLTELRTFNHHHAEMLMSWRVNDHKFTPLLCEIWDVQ
Experimental: Cell counting: HEK-293T cells in logarithmic growth phase were digested with 0.25% trypsin, collected, and centrifuged. The trypsin-containing medium was discarded, and 2 mL of fresh phenol red-free DMEM medium containing 5% fetal bovine serum was added. The cells were then mixed with the medium to prepare a cell suspension and counted on a cell counting plate.
Cell plating: A determined number of cells were taken from the cell suspension, diluted with phenol red-free DMEM medium containing 5% fetal bovine serum, and plated at a concentration of 10,000 cells per well (100 µL medium) in a 96-well plate. The plate was then incubated at 37 °C and 5% CO2 for 24 h.
Cell transfection: Fresh phenol red-free DMEM medium was taken in a sterile environment, and the previously extracted pFXR-Binding plasmid and PG4.35[luc2P-9XGA4UAS-Hygro] plasmid were added. The mixture was stirred and allowed to stand at 23 °C for 3 min. Then, a 3% amount of transfection reagent was added to the mixture, and it was allowed to stand at 23 °C for 15 min. The mixture was then added to the 96-well plate at a volume of 10 µL per well and incubated at 37 °C in a 5% CO2 environment for 24 h.
The OA derivatives were prepared as 10 mM DMSO stock solutions and further diluted in a concentration gradient, with 10 µL added to each well. The final concentrations of the derivatives ranged from 10 µM to 0.03 µM, with 7 concentration gradients using […] dilution. The test was set with 3 duplicated wells.
Antagonism activity test: The firefly-Renilla Dual Fluorescence Assay Kit (Promega, #E2940, Madison, WI, USA) was used to measure the antagonism activity of the OA derivatives. Firstly, the firefly fluorescence reagent was added to the 96-well plate at a volume of 70 µL per well and shaken in darkness for 15 min. Then, the fluorescence intensity was measured at a wavelength of 645 ± 30 nm in a microplate reader (BioTek, Winooski, VT, USA). Next, the volume of Renilla reagent was added to the 96-well plate at a volume of 70 µL per well and shaken in darkness for 15 min. The fluorescence intensity was then measured at a wavelength of 525 ± 20 nm.
Data processing: The fluorescence data of firefly were divided by the fluorescence data of Renilla to remove errors, and the antagonism efficiency was calculated using the following formula: antagonism efficiency (%) = [1 − (FCompds. − FDMSO)/(FCDCA − FDMSO)] × 100%. In the formula, F represents fluorescence intensity. The antagonistic efficiency data were obtained as a concentration–effect curve using Graphpad Prism 8.0 software, and the corresponding IC50 value was calculated.

FXR [2] = target: T2, FXR; assay: NR selectivity one-hybrid assay in HEK-293T cells (FXR); details: FXR agonist CDCA (50 μM)
Experimental: as §1, §2

## CC1(C)CCC2(C(=O)O)CCC3(C)C(C(OC(=O)CCC(NC(=O)OC(C)(C)C)C(=O)OC(C)(C)C)CC4C5(C)CCC(O)C(C)(C)C5CCC43C)C2C1 [Compound 10b, 3β-hydroxy-12β-(4′-((tert-butoxycarbonyl)amide)-5′-(tert-butoxy)-L-glutamte)oxy-13H-olean-28-oic acid]
PPARα
  antagonistic effects against PPARα: 10–20%
FXR [1]; HEK-293T cells, CDCA (50 μM) as agonist, mean ± SE of three independent tests
  IC50: 440 ± 150 nM
FXR [1]; ratio of IC50 values
  times more potent than 10d: 8.3
FXR [2]
  antagonistic effects against FXR: > 90%
